One data set in a line: in vivo. The note with it: male, Crj:CD1, mouse, iv.
For data set [1] the following is noted: Slc:ICR, mouse, not told, iv.
Data set [2] concerns abnormal prion proteins in ScN2a cells with persistent infection of scrapie. The data set is described as follows: cells. The data set is classed as cell-based, mouse. The conditions noted are these: for IC50: Mus musculus, ScN2a, 96 h, read-out: Inhibitory effects on producing abnormal prion protein IC50; for Inhibitory effects on producing abnormal prion proteins (in words): ScN2a cells.

The test system of another data set is ScN2a cells. The note with it: for Concentration of inhibiting cell proliferation TC: mouse.

34 molecules from patent publication US20050260126A1 (priority 2002, published 2005) can be followed below.

Structures can show the parent of a compound that is named as a salt.

`CN(C)c1cnc(/C=C/c2nc3ccccc3o2)o1` [BF-215, 2-[2-(5-dimethylamino-oxazol-2-yl)-ethenyl]-benzoxazole] displayed an MTD in the data set “in vivo” not below 10 mg/kg. Moreover, in data set [1], the “Permeability into the brain: content in Brain” value is 8.8 % ID/g or ml and the “Permeability into the brain: content in Plasma” value is reported as 2.5 % ID/g or ml.

Usually IC50 stands for the concentration that inhibits the measured activity by half. The molecule `CN(C)c1ncc(/C=C/C=C/c2nc3ccccc3[nH]2)s1` [BF-231, 2-[4-(2-dimethylamino-thiazol-5-yl)-1,3-butadienyl]benzimidazole] displayed an MTD in the data set “in vivo” not below 10 mg/kg. Further, the IC50 in data set [2] turned out to be 1.6 nM. The “Concentration of inhibiting cell proliferation TC” value in the data set with ScN2a cells is more than 10 µM.

In “in vivo”, `CN(C)c1ncc(/C=C/c2nc3ccccc3o2)o1` [BF-230, 2-[2-(2-dimethylamino-oxazol-5yl)-ethenyl]benzoxazole] returned an MTD not below 10 mg/kg.

With `c1ccc2cc(-c3cn4ccccc4n3)ccc2c1` [Compound N-437, 2-(2-naphthyl)imidazo-[1,2-a]pyridine hydrobromide], the MTD in “in vivo” was not below 10 mg/kg. In addition, in data set [2], the IC50 worked out at 1 nM. In the data set with ScN2a cells, the “Concentration of inhibiting cell proliferation TC” value worked out at 100 µM.

In the data set “in vivo”, `Cc1nc(/C=C/c2ccc(N(C)C)cc2O)oc1COCCF` [BF-210] yielded an MTD not below 10 mg/kg.

The molecule `CNc1ccc(/C=C/C=C/c2nc3ccccc3[nH]2)cc1` [BF-188, 2-[[4-(4-methylamino)-phenyl]-1,3-butadienyl]-benzimidazole] gave an MTD in “in vivo” not below 10 mg/kg. Besides, in data set [1], the “Permeability into the brain: content in Brain” value was 4.8 % ID/g or ml and the “Permeability into the brain: content in Plasma” value is given as 1.7 % ID/g or ml.

In “in vivo”, `Cc1nc(/C=C/c2cnc(N(C)C)s2)oc1C` [BF-214, 2-(dimethylamino)-5-[2-(4,5-dimethyloxazol-2-yl)ethenyl]thiazole] showed an MTD not below 10 mg/kg. Also, in data set [1], the “Permeability into the brain: content in Brain” value is given as 9.0 % ID/g or ml and the “Permeability into the brain: content in Plasma” value is recorded as 2.1 % ID/g or ml.

In turn, `CNc1ccc(/C=C/c2nc3ccccc3o2)c(N)c1` [BF-207, 2-(2-amino-4-N-methyl-aminostyryl)benzoxazole] came in with an MTD in the data set “in vivo” not below 10 mg/kg.

In “in vivo”, `CC1=NN(c2ccc(/C=C/c3nc4ccccc4o3)cc2)C(=O)C1` [BF-181, 2-[2-[4-(3-methyl-5-oxo-2-pyrrozolin-1-yl)-phenyl]ethenyl]benzoxazole] gave an MTD of 3 to 10 mg/kg.

Turning to `CN(C)c1ccc(/C=C/c2nc3ccccc3o2)c(O)c1` [BF-206, 2-(4-dimethylamino-2-hydroxystyryl)-benzoxazole], the MTD in the data set “in vivo” was not below 10 mg/kg. In addition, in data set [2], the IC50 stood at 2 nM. Moreover, the “Concentration of inhibiting cell proliferation TC” value in the data set on ScN2a cells was more than 10 µM.

Consider `Nc1ccc(-c2ccc3cc(CF)ccc3n2)c(O)c1` [BF-213, 2-[(4-amino-2-hydroxy)-phenyl]-6-(fluoro-methyl)quinoline], for which, in the data set “in vivo”, the MTD was not below 10 mg/kg. Further, in data set [2], the IC50 was found to be 2 nM. In the data set with ScN2a cells, the “Concentration of inhibiting cell proliferation TC” value was 10 µM.

Turning to `Cc1nc(/C=C/C=C/c2ccc(N(C)C)cc2)oc1C` [BF-228, 2-[[4-(4-dimethylamino)-phenyl]-1,3-butadienyl]-3,4-dimethyloazole], in “in vivo”, the MTD was not below 10 mg/kg. Besides, the IC50 in data set [2] was 16 nM. For the same molecule, in the data set on ScN2a cells, the “Concentration of inhibiting cell proliferation TC” value was more than 10 µM.

Molecule `CN(C)c1ccc(/C=C/c2cccs2)cc1` [BF-141, 2-[2-(4-dimethylamino-phenyl)ethenyl]thiophene] registered an MTD in the data set “in vivo” of 3 to 10 mg/kg. In data set [2], the IC50 amounted to 1 nM and the “Inhibitory effects on producing abnormal prion proteins (in words)” value (from here on “Inhibitory effects”) is given as “highly inhibitory effects”. Also, the “Concentration of inhibiting cell proliferation TC” value in the data set with ScN2a cells stood at 10 µM.

Turning to `CN(C)c1ccc(-c2nc3ccccc3s2)cc1` [BF-150, 2-(4-dimethylamino-phenyl) benzothiazole], in data set [1], the “Permeability into the brain: content in Brain” value is on record as 11.2 % ID/g or ml and the “Permeability into the brain: content in Plasma” value is listed as 1.5 % ID/g or ml. In addition, in data set [2], the IC50 was 1 nM and the “Inhibitory effects” value was “highly inhibitory effects”. Further, the “Concentration of inhibiting cell proliferation TC” value in the data set on ScN2a cells turned out to be 10 µM.

In “in vivo”, `CNc1ccc(C=Cc2ccc3cc(I)ccc3n2)c(O)c1` [BF-199, 2-[2-(2-hydroxyl-4-methylaminophenyl)-ethenyl]-6-iodoquinoline] showed an MTD not below 10 mg/kg. Further, the IC50 in data set [2] stood at 0.8 nM. Further, the “Concentration of inhibiting cell proliferation TC” value with ScN2a cells is more than 10 µM.

In “in vivo”, `CNc1ccc(/C=C/C=C/c2nc3ccccc3o2)cc1` [BF-185, 2-[[4-(4-methylamino)-phenyl]-1,3-butadienyl]-benzoxazole] came in with an MTD not below 10 mg/kg. In addition, in data set [1], the “Permeability into the brain: content in Brain” value was 3.9 % ID/g or ml and the “Permeability into the brain: content in Plasma” value is 1.0 % ID/g or ml.

Take `Nc1ccc(/C=C/c2nc3cc(I)ccc3o2)cc1` [BF-173, 2-(4-amino)styryl-5-iodobenzoxazole]: in “in vivo”, the MTD is not below 10 mg/kg. In addition, in data set [2], the IC50 came to 100 nM. Further, in the data set on ScN2a cells, the “Concentration of inhibiting cell proliferation TC” value is 100 µM.

Consider `Clc1ccc(/C=C/c2nc3ccccc3o2)cc1` [BF-191, 2-[2-(4-chlorophenyl)ethenyl]benzoxazole], for which, in data set [1], the “Permeability into the brain: content in Brain” value is 12.0 % ID/g or ml and the “Permeability into the brain: content in Plasma” value was 2.1 % ID/g or ml. The IC50 in data set [2] stood at 4 nM. Also, in the data set on ScN2a cells, the “Concentration of inhibiting cell proliferation TC” value is more than 10 µM.

`CN(C)c1ncc(-c2nc3ccccc3o2)s1` [BF-225, 2-(2-dimethylamino-thiazol-5-yl)benzoxazole]: the MTD in “in vivo” is not below 10 mg/kg.

For `CN(C)c1ccc(-c2cn3cc(I)ccc3n2)cc1` [BF-130, 2-(4-dimethylamino) phenyl-6-iodoimidazo-[1,2-a]pyridine], in data set [1], the “Permeability into the brain: content in Brain” value is reported as 7.3 % ID/g or ml and the “Permeability into the brain: content in Plasma” value is recorded as 2.4 % ID/g or ml. In data set [2], the IC50 turned out to be 1 nM and the “Inhibitory effects” value is “highly inhibitory effects”. Besides, in the data set with ScN2a cells, the “TC and safety concentration margin (in words)” value is “higher TCs, therefore higher safety concentration margins”; the “Concentration of inhibiting cell proliferation TC” value stood at 100 µM.

Take `CN(C)c1ncc(/C=C/c2nc3ccccc3s2)s1` [BF-196, 2-[2-(2-dimethylamino-thiazol-5-yl)ethenyl]-benzothiazole]: in data set [1], the “Permeability into the brain: content in Brain” value is 19 % ID/g or ml and the “Permeability into the brain: content in Plasma” value is listed as 1.8 % ID/g or ml. The IC50 in data set [2] was determined as 16 nM. Also, the “Concentration of inhibiting cell proliferation TC” value with ScN2a cells was more than 10 µM.

Take `CNc1ccc(/C=C/C=C/C=C/c2ccc3ccccc3n2)cc1` [BF-189, 1-(4-methylamino-phenyl)-6-(2-quinolyl)-1,3,5-hexatriene]: the MTD in “in vivo” was not below 10 mg/kg. The IC50 in data set [2] was 100 nM. Moreover, in the data set with ScN2a cells, the “Concentration of inhibiting cell proliferation TC” value was 100 µM.

Turning to `Cc1ccc2nc(-c3ccc(NC(=O)Nc4cccc(Cl)c4)cc3)sc2c1` [HT-043, 4-(6-methylbenzothiazol-2-yl)-N-(3-chlorophenyl-aminocarbonyl)aniline], in data set [2], the IC50 worked out at 100 nM. For the same molecule, the “Concentration of inhibiting cell proliferation TC” value in the data set on ScN2a cells was more than 10 µM.

On to `Nc1ccc(-c2nc3cc(Oc4ccc5[nH]c(-c6ccc(N)cc6)nc5c4)ccc3[nH]2)cc1` [Compound N-241], for which, in data set [2], the IC50 is 10 nM. In addition, the “Concentration of inhibiting cell proliferation TC” value with ScN2a cells stood at 10 µM.

For `Nc1ccccc1/C=C/c1nc2ccccc2[nH]1` [Compound N-402, 2-[2-(2-aminophenyl)ethenyl]benzimidazole], the 50% inhibitory concentration (IC50) in data set [2] worked out at 50 nM. For the same molecule, the “Concentration of inhibiting cell proliferation TC” value with ScN2a cells was 50 µM.

Take `CN(C)c1ncc(-c2ccc3ccccc3n2)o1` [BF-221, 2-(2-dimethylamino-oxazol-5-yl)quinoline]: in data set [2], the IC50 stood at 80 nM. Further, the “Concentration of inhibiting cell proliferation TC” value in the data set with ScN2a cells is more than 10 µM.

With `CNc1ccc(-c2ccc3ccccc3n2)cc1` [BF-158, 2-[(4-methylamino)-phenyl]quinoline], in data set [1], the “Permeability into the brain: content in Brain” value is listed as 9.7 % ID/g or ml and the “Permeability into the brain: content in Plasma” value is given as 1.8 % ID/g or ml. Further, in data set [2], the IC50 worked out at 10 nM. In addition, the “Concentration of inhibiting cell proliferation TC” value in the data set on ScN2a cells is 100 µM.

`Nc1ccc(/C=C/c2ccc3ccccc3n2)cc1` [BF-177, 2-[2-(4-aminophenyl)ethenyl]quinoline]: the MTD in “in vivo” was not below 10 mg/kg. For the same molecule, in data set [1], the “Permeability into the brain: content in Brain” value is recorded as 8.2 % ID/g or ml and the “Permeability into the brain: content in Plasma” value is recorded as 1.6 % ID/g or ml.

In the case of `Nc1ccc(-c2nc3ccc(O)cc3s2)cc1` [BF-160, 2-(4-aminophenyl)-6-hydroxybenzothiazole], the IC50 in data set [2] was 10 nM. Also, the “Concentration of inhibiting cell proliferation TC” value in the data set with ScN2a cells was 10 µM.

In the case of `CN(C)c1ccc(/C=C/c2nccn2C)cc1` [BF-138, 2-[2-(4-dimethylamino-phenyl)ethenyl]-1-methylimidazole], in data set [2], the IC50 was 100 nM. For the same molecule, the “Concentration of inhibiting cell proliferation TC” value in the data set on ScN2a cells is 100 µM.

In turn, `CN(C)c1ccc2cc(-c3nc4cc(F)ccc4[nH]3)ccc2c1` [BF-153, 5-fluoro-2-(6-dimethyl-aminonaphthalen-2-yl)benzimidazole] displayed an MTD in “in vivo” of 3 to 10 mg/kg. In data set [2], the IC50 came to 1 nM and the “Inhibitory effects” value is recorded as “highly inhibitory effects”. Further, the “Concentration of inhibiting cell proliferation TC” value with ScN2a cells came to 10 µM.

With `Nc1ccc(-c2ccc3ccccc3n2)cc1` [BF-170, 2-[(4-amino)phenyl]-quinoline], in data set [1], the “Permeability into the brain: content in Brain” value is reported as 9.1 % ID/g or ml and the “Permeability into the brain: content in Plasma” value was 1.4 % ID/g or ml. The IC50 in data set [2] amounted to 100 nM. Also, the “Concentration of inhibiting cell proliferation TC” value with ScN2a cells was 100 µM.

`Cc1nc(/C=C/c2ccc(N(C)C)cc2O)oc1CO` [BF-200, 2-[2-[(4-dimethylamino-2-hydroxy)phenyl]-ethenyl]-5-hydroxy methyl-4-methyloxazole] returned an MTD in the data set “in vivo” not below 10 mg/kg.

As for `Nc1cccc(-c2cn3cc(Cl)ccc3n2)c1` [Compound N-475, 2-(3-aminophenyl)-6-chloroimidazo[1,2-a]pyridine], the IC50 in data set [2] was 100 nM. The “Concentration of inhibiting cell proliferation TC” value in the data set with ScN2a cells is 100 µM.
